Reference: ChEMBL document CHEMBL4402562, “Discovery of Novel Peptidomimetic Boronate ClpP Inhibitors with Noncanonical Enzyme Mechanism as Potent Virulence Blockers in Vitro and in Vivo” (J Med Chem, 2020)

Target: T1, ATP-dependent Clp protease proteolytic subunit (Staphylococcus aureus (strain NCTC 8325), UniProt Q2G036)
T1 sequence (Q2G036 whole entry): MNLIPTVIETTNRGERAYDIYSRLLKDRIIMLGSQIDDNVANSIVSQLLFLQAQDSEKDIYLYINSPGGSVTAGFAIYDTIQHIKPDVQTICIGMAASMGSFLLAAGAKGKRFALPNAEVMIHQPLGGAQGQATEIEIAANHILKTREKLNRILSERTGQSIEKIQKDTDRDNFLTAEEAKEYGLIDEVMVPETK
Assay: Inhibition of ClpP in methicillin-resistant Staphylococcus aureus ATCC 33591 assessed as reduction in bacteria-induced hemolysis of sheep erythrocytes by measuring hemoglobin release incubated for 15 mins

CC(C)C[C@H](NC(=O)[C@H](Cc1c[nH]c2ccccc12)NC(=O)c1cc(Cl)ccc1Cl)B(O)O
EC50: 1400 nM
